Four compounds from patent US20060249167A1, “Flavor ingredients for cooling preparations” (priority 2003, published 2006) can be followed below.

A short description of data set [1]: Organoleptic (odor and flavor) description of the compound and its isomers. The conditions noted are these: in vivo.

As to `CC1CCC(C(C)C)C2(C1)OC(=O)C(C)O2` (stereo not shown) [Compound (I), 6-isopropyl-3,9-dimethyl-1,4-dioxaspiro[4.5]decan-2-one], in data set [1], the flavor result is listed as “minty, fresh, piperita type” and the odor entry is reported as “minty, menthone type odor”.
Turning to `CC(C)[C@@H]1CC[C@@H](C)CC12OC(=O)[C@H](C)O2` (stereo partly drawn) [Compound of example 1a, (3S, 6S, 9R)-6-isopropyl-3,9-dimethyl-1,4-dioxaspiro[4.5]decan-2-one], in data set [1], the flavor entry was “interesting minty note with refreshing effect”.
`CC(C)[C@@H]1CC[C@@H](C)C[C@]12OC(=O)[C@H](C)O2` [Compound of example 1c, (3S, 5S, 6S, 9R)-6-isopropyl-3,9-dimethyl-1,4-dioxaspiro[4.5]decan-2-one] showed a melting point of 33 to 34 °C. The flavor entry in data set [1] was “more of the cooling type with a minty connotation”.
As for `CC(C)[C@@H]1CC[C@@H](C)C[C@@]12OC(=O)[C@H](C)O2` [Compound of example 1b, (3S, 5R, 6S, 9R)-6-isopropyl-3,9-dimethyl-1,4-dioxaspiro[4.5]decan-2-one], the flavor result in data set [1] is “more of the cooling type with a minty connotation”; in data set [1] (listed as (3S,5R,6S,9R) isomer) it was “stronger and more lingering effect”.
